Experimental data published in patent US20070190188A1, “Controlling Toxicity of Aminoquinoline Compounds” (The University of Mississippi, priority 2005, published 2007).
Blank lines part the entries; values can stand above or below the molecule they belong to.

Assays:
[1] = system: pooled human liver microsomes; test: In vitro formation of methemoglobinemic metabolites with pooled human liver microsomes and human erythrocytes; type: cell-based; settings: for formation of methemoglobenemic metabolites, Control: macrolide alone, no 8-aminoquinoline
Method: (§1) In one aspect of the present invention, an in vitro assay is developed for evaluation of biotransformation reactions leading to generation of methemoglobinemic metabolites of 8-aminoquinolines. This method uses simultaneous incubation of a test compound with the hepatic microsomes or Baculosomes® (microsomes prepared from insect cells infected with recombinant baculovirus containing a cDNA insert for a specific human P450 isozyme and NADPH-P450 reductase) and human erythrocytes followed by determination of methemoglobin formation. This allows the unstable metabolites generated in situ to react with the human erythrocytes.

Mouse Liver Microsomes = test: In vitro formation of methemoglobinemic metabolites with mouse liver microsomes and human erythrocytes; type: cell-based; settings: for formation of methemoglobenemic metabolites, Control / formation of methemoglobenemic metabolites, Azithromycin / formation of methemoglobenemic metabolites, Erythromycin / formation of methemoglobenemic metabolites, Microsomes: Mouse Liver Microsomes; for formation of methemoglobenemic metabolites, Control: macrolide alone, no 8-aminoquinoline; for formation of methemoglobenemic metabolites, Azithromycin: 8-aminoquinoline with Azithromycin; for formation of methemoglobenemic metabolites, Erythromycin: 8-aminoquinoline with Erythromycin; for formation of methemoglobenemic metabolites, Microsomes: no macrolide; for % methemoglobin formation, Mouse Liver Microsomes: drug 100 μM, microsomes equivalent to 25 pmoles cytochrome P450, Mean ± S.D. of four
Method: as §1

Plasmodium berghei = test: In vivo antimalarial evaluation in Plasmodium berghei-mouse malaria model; settings: TAO i.p. 50 mg/kg × 3 once daily alone; for (%) Parasitemia: mean in brackets
Source text: One concern with this method of controlling 8-aminoquinoline toxicity is that the inhibition metabolism of the drug may impair its antiparasitic efficacy. […] Thus treatment of the individuals with NPC1161B along with an inhibitor of CYP3A4 should not compromise the therapeutic efficiency of NPC1161B.

human erythrocytes = test: In vitro methemoglobin formation, human erythrocytes, control without microsomes; type: cell-based; settings: for % methemoglobin formed, Supersomes None: no Baculosomes, mean ± S.D. of four; for % methemoglobin formation, Control: no microsomes, drug 100 μM, Mean ± S.D. of four observations
Method: as §1

CYP 2C9 = target: T1, CYP 2C9 (Homo sapiens, UniProt P11712); test: Methemoglobinemic metabolite formation with Baculosomes, CYP 2C9; type: cell-based; settings: mean ± S.D. of four
T1 construct: purchased; host or cells: insect cells infected with recombinant baculovirus
Method: (§2) This method uses simultaneous incubation of a test compound with the hepatic microsomes or Baculosomes® (microsomes prepared from insect cells infected with recombinant baculovirus containing a cDNA insert for a specific human P450 isozyme and NADPH-P450 reductase) and human erythrocytes followed by determination of methemoglobin formation. This allows the unstable metabolites generated in situ to react with the human erythrocytes.

CYP 3A4 = target: T2, CYP 3A4 (Homo sapiens, UniProt P08684); test: Methemoglobinemic metabolite formation with Baculosomes, CYP 3A4; type: cell-based
T2 construct: purchased; host or cells: insect cells infected with recombinant baculovirus
Method: as §1

CYP 1A2 = target: T3, CYP 1A2 (Homo sapiens, UniProt P05177); test: Methemoglobinemic metabolite formation with Baculosomes, CYP 1A2; type: cell-based; settings: mean ± S.D. of four
T3 construct: purchased; host or cells: insect cells infected with recombinant baculovirus
T3 sequence (P05177 2-516 limits assumed): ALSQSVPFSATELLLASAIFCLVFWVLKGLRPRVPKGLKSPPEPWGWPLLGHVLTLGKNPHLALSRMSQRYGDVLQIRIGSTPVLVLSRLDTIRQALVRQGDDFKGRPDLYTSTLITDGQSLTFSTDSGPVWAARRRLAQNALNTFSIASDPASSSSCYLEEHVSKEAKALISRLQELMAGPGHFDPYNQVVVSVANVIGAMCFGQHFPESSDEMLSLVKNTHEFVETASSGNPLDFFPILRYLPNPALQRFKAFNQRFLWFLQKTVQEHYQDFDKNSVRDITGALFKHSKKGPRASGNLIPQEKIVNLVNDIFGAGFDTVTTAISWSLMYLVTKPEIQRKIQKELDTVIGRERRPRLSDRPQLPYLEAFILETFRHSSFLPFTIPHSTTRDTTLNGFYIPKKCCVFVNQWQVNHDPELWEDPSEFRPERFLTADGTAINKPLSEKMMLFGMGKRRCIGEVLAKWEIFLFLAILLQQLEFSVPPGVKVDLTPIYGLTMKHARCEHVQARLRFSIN
Method: as §2

CYP 2D6 = target: T4, CYP 2D6 (Homo sapiens, UniProt P10635); test: Methemoglobinemic metabolite formation with Baculosomes, CYP 2D6; type: cell-based; settings: mean ± S.D. of four
T4 construct: purchased; host or cells: insect cells infected with recombinant baculovirus
Method: as §2

CYP 2A6 = target: T5, CYP 2A6 (Homo sapiens, UniProt P11509); test: Methemoglobinemic metabolite formation with Baculosomes, CYP 2A6; type: cell-based; settings: mean ± S.D. of four
T5 construct: purchased; host or cells: insect cells infected with recombinant baculovirus
T5 sequence (P11509 1-494): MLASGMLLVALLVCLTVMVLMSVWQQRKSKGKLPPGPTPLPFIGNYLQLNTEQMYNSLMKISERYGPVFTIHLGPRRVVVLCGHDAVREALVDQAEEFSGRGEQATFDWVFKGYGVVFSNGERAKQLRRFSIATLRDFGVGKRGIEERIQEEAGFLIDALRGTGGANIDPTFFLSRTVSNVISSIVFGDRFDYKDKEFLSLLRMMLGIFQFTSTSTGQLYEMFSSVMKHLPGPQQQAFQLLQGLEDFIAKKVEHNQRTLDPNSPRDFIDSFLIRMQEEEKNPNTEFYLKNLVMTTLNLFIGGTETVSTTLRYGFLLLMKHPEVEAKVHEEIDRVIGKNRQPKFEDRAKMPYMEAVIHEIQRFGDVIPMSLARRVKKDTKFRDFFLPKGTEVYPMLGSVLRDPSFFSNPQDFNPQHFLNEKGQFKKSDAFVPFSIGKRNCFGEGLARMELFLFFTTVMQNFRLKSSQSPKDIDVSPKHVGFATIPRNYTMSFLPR
Method: as §2

CYP 2E1 = target: T6, CYP 2E1 (Homo sapiens, UniProt P05181); test: Methemoglobinemic metabolite formation with Baculosomes, CYP 2E1; type: cell-based; settings: mean ± S.D. of four
T6 construct: purchased; host or cells: insect cells infected with recombinant baculovirus
Method: as §2

CYP 2C8 = target: T7, CYP 2C8 (Homo sapiens, UniProt P10632); test: Methemoglobinemic metabolite formation with Baculosomes, CYP 2C8; type: cell-based; settings: mean ± S.D. of four
T7 construct: purchased; host or cells: insect cells infected with recombinant baculovirus
T7 sequence (P10632 1-490): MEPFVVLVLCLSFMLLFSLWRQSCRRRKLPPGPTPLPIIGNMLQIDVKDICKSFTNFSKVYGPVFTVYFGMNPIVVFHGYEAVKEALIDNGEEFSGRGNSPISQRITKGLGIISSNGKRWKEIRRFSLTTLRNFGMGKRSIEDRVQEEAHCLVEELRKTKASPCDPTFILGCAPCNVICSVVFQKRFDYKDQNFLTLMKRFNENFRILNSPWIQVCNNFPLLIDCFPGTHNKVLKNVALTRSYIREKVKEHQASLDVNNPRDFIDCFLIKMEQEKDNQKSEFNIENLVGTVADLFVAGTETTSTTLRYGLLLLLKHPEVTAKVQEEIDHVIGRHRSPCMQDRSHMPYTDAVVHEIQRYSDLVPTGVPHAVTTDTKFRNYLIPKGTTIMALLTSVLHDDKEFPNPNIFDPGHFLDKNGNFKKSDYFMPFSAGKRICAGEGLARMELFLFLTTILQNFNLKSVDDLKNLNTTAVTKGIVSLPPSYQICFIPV
Method: as §1

CYP 2C19 = target: T8, CYP 2C19 (Homo sapiens, UniProt P33261); test: Methemoglobinemic metabolite formation with Baculosomes, CYP 2C19; type: cell-based; settings: mean ± S.D. of four
T8 construct: purchased; host or cells: insect cells infected with recombinant baculovirus
Method: as §2

CPY 2B6 = target: T9, CPY 2B6 (Homo sapiens, UniProt P20813); test: Methemoglobinemic metabolite formation with Baculosomes, CYP 2B6; type: cell-based; settings: mean ± S.D. of four
T9 construct: purchased; host or cells: insect cells infected with recombinant baculovirus
T9 sequence (P20813 1-491): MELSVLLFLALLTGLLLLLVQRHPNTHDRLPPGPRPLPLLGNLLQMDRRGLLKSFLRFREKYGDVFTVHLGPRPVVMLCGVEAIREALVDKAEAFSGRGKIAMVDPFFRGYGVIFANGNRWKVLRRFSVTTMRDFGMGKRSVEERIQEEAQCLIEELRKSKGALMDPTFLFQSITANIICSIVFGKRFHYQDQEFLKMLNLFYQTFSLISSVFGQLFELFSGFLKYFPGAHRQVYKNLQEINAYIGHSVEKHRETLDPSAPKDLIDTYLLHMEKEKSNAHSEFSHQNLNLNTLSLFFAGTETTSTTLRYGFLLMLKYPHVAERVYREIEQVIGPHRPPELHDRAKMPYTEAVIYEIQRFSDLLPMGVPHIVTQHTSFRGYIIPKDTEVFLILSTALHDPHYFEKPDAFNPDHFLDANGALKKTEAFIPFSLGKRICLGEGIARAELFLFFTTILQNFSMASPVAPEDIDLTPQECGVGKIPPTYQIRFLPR
Method: as §2

T2 sequence (P08684 2-503 limits assumed): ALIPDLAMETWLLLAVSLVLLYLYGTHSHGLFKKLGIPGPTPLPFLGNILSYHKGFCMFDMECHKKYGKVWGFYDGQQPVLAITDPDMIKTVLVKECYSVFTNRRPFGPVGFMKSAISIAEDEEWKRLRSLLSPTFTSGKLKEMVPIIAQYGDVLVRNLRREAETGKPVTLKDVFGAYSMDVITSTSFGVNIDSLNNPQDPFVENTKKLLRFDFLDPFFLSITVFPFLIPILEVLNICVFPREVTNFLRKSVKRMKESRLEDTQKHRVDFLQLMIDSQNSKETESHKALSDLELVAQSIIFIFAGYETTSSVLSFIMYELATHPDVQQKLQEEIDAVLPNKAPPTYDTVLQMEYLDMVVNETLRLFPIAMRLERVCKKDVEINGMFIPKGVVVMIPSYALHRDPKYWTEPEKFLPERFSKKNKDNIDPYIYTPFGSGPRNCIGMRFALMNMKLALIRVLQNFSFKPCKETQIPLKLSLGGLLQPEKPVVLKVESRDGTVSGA
T8 sequence (P33261 whole entry): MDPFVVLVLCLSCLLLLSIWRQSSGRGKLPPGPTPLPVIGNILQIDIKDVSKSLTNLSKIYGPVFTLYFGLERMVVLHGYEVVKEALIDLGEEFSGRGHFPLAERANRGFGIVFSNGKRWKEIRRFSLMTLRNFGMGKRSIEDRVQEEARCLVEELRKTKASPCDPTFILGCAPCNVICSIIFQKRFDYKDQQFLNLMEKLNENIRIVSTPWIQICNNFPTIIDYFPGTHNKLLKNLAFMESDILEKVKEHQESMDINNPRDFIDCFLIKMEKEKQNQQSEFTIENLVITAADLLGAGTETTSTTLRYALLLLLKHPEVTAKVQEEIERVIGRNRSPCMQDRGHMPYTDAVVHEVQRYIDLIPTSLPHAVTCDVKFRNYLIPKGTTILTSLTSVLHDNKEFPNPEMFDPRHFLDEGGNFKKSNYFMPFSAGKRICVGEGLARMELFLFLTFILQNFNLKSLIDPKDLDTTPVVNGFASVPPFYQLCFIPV
T4 sequence (P10635 whole entry): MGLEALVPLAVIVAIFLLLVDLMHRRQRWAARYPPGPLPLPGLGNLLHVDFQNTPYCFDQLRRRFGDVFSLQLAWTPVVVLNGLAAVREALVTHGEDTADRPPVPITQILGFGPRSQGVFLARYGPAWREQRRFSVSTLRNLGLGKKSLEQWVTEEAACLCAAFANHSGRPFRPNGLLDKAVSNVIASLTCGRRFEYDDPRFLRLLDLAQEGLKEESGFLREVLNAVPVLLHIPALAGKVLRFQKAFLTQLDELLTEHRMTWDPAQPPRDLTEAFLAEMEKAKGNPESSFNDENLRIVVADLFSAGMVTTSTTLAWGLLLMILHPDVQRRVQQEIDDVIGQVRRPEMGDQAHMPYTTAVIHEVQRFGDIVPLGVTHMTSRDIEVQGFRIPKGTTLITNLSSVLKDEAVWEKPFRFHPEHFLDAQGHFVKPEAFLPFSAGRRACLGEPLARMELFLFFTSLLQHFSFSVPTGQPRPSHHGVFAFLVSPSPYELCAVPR
T1 sequence (P11712 whole entry): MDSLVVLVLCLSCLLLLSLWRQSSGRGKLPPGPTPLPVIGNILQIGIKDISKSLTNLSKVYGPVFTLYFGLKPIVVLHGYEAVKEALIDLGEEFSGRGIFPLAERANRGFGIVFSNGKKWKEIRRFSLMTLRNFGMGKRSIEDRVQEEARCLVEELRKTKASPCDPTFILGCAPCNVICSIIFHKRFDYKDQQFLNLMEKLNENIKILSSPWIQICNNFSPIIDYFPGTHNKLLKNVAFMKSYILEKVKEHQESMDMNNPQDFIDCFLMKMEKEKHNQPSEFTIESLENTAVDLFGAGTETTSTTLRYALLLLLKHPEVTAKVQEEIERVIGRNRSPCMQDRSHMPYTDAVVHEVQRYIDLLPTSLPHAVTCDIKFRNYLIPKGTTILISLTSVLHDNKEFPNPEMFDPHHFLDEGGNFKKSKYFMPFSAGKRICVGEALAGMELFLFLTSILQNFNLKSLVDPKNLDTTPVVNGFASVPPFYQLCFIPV
T6 sequence (P05181 whole entry): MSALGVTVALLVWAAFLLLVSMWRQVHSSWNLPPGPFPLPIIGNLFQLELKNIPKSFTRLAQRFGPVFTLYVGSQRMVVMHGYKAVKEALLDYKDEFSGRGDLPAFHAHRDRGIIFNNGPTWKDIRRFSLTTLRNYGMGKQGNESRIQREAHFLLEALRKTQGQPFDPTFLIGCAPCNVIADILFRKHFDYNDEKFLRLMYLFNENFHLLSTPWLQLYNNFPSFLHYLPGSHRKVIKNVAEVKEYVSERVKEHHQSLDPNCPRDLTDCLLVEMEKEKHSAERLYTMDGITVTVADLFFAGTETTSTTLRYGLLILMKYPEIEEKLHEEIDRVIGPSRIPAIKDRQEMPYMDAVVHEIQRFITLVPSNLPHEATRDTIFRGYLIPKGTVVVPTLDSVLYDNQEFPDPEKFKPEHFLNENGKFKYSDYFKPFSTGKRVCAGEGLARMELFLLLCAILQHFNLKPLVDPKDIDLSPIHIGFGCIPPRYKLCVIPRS

SMILES: CO[C@H]1C[C@H](O[C@H]2[C@H](C)[C@@H](O[C@@H]3O[C@H](C)C[C@H](N(C)C)[C@H]3OC(C)=O)[C@@H](C)C[C@@]3(CO3)C(=O)[C@H](C)[C@@H](OC(C)=O)[C@@H](C)[C@@H](C)OC(=O)[C@@H]2C)O[C@@H](C)[C@@H]1OC(C)=O [Troleandomycin, troleandomycin, reference compound]
- MST (Plasmodium berghei): 15 days
- (%) Parasitemia (Plasmodium berghei; day 7 p.i.): 13.3/18.3/25.5/16.5/13.1 (17.3) %
- (%) Parasitemia (Plasmodium berghei; day 10 p.i.): 22.7/34.5/32.0/32.1/24.3 (29.1) %
- (%) Parasitemia (Plasmodium berghei; day 14 p.i.): 31.5/41.5/28.5/49.3/49.3 (40.0) %
- deaths (Plasmodium berghei; number of deaths/day): 5/15

SMILES: COc1cc(NC(C)CCCN)c2ncccc2c1 (stereo not shown) [Primaquine, primaquine, reference compound]
- % methemoglobin formed, Supersomes None (human erythrocytes): 1.465 ± 0.183%
- % methemoglobin formation, Control (human erythrocytes): 1.465 ± 0.414%
- formation of methemoglobenemic metabolites, Azithromycin (Mouse Liver Microsomes): 11.800 ± 2.862
- formation of methemoglobenemic metabolites, Erythromycin (Mouse Liver Microsomes): 23.770 ± 5.826
- formation of methemoglobenemic metabolites, Microsomes (Mouse Liver Microsomes): 36.660 ± 2.612
- % methemoglobin formation, Mouse Liver Microsomes (Mouse Liver Microsomes): 36.660 ± 2.612%

More lines, main results first:

- formation of methemoglobenemic metabolites, Control ([1]; pooled human Liver Microsomes): 0
- formation of methemoglobenemic metabolites, Control (Mouse Liver Microsomes): 6.230 ± 1.009
SMILES: CC[C@H]1OC(=O)[C@H](C)[C@@H](O[C@H]2C[C@@](C)(OC)[C@@H](O)[C@H](C)O2)[C@H](C)[C@@H](O[C@@H]2O[C@H](C)C[C@H](N(C)C)[C@H]2O)[C@](C)(O)C[C@@H](C)C(=O)[C@H](C)[C@@H](O)[C@]1(C)O [Erythromycin, erythromycin, reference compound]

- % methemoglobin formed, CYP 2C9 (CYP 2C9): 0.070 ± 0.130%
- % methemoglobin formed, Cimetidine (CYP 3A4; 3A4 Baculosomes, 8-aminoquinoline 100 μM with Cimetidine 100 μM): 11.905 ± 1.420%
- % methemoglobin formed, Erythromycin (CYP 3A4; 3A4 Baculosomes, 8-aminoquinoline 100 μM with Erythromycin 100 μM): 15.288 ± 2.359%
- % methemoglobin formed, Ketoconazole (CYP 3A4; 3A4 Baculosomes, 8-aminoquinoline 100 μM with Ketoconazole 100 μM): 19.010 ± 0.870%
- % methemoglobin formed, Troleandomycin (CYP 3A4; 3A4 Baculosomes, 8-aminoquinoline 100 μM with Troleandomycin 100 μM): 16.743 ± 1.401%
- % methemoglobin formed, inhibitor None (CYP 3A4; 3A4 Baculosomes, 8-aminoquinoline 100 μM, no inhibitor): 20.925 ± 0.502%
- % methemoglobin formed, CYP 3A4 (CYP 3A4; Baculosomes, mean ± S.D. of four): 15.320 ± 0.504%
- % methemoglobin formed, Supersomes None (human erythrocytes): 2.138 ± 0.624%
- % methemoglobin formation, Control (human erythrocytes): 2.138 ± 0.624%
- % methemoglobin formed, CYP 1A2 (CYP 1A2): 2.060 ± 0.185%
- % methemoglobin formed, CYP 2D6 (CYP 2D6): 17.200 ± 1.088%
- % methemoglobin formed, CYP 2A6 (CYP 2A6): 2.775 ± 0.175%
- % methemoglobin formed, CYP 2E1 (CYP 2E1): 8.703 ± 0.956%
- % methemoglobin formed, CYP 2C8 (CYP 2C8): 1.893 ± 0.275%
- % methemoglobin formation, Pooled Human liver Microsomes ([1]; drug 100 μM, microsomes equivalent to 25 pmoles cytochrome P450, Mean ± S.D. of four): 12.510 ± 1.890%
- formation of methemoglobenemic metabolites, Azithromycin ([1]; pooled human Liver Microsomes, 8-aminoquinoline with Azithromycin): 10.595 ± 0.842
- formation of methemoglobenemic metabolites, Erythromycin ([1]; pooled human Liver Microsomes, 8-aminoquinoline with Erythromycin): 6.720 ± 1.011
- formation of methemoglobenemic metabolites, Microsomes ([1]; pooled human Liver Microsomes, no macrolide): 12.860 ± 1.994
- % methemoglobin formed, CYP 2C19 (CYP 2C19): 1.733 ± 0.327%
- % methemoglobin formed, CPY 2B6 (CPY 2B6): 5.465 ± 0.625%
- formation of methemoglobenemic metabolites, Azithromycin (Mouse Liver Microsomes): 10.850 ± 2.134
- formation of methemoglobenemic metabolites, Erythromycin (Mouse Liver Microsomes): 9.375 ± 0.686
- formation of methemoglobenemic metabolites, Microsomes (Mouse Liver Microsomes): 17.790 ± 1.460
- % methemoglobin formation, Mouse Liver Microsomes (Mouse Liver Microsomes): 17.790 ± 1.460%
SMILES: COc1cc(N[C@@H](C)CCCN)c2nccc(C)c2c1Oc1ccc(Cl)c(Cl)c1 [NPC1161A]
- methemoglobin toxicity generated by CYP 3A4, comparison among the three 8-aminoquinolines (CYP 3A4; FIG. 5): almost similar methemoglobin toxicity

- formation of methemoglobenemic metabolites, Control ([1]; pooled human Liver Microsomes): 0
- formation of methemoglobenemic metabolites, Control (Mouse Liver Microsomes): 6.598 ± 0.505
SMILES: CC[C@H]1OC(=O)[C@H](C)[C@@H](O[C@H]2C[C@@](C)(OC)[C@@H](O)[C@H](C)O2)[C@H](C)[C@@H](O[C@@H]2O[C@H](C)C[C@H](N(C)C)[C@H]2O)[C@](C)(O)C[C@@H](C)CN(C)[C@H](C)[C@@H](O)[C@]1(C)O [Azithromycin, reference compound]
